Results as given in patent US20110281869A1, “TETRAHYDROISOQUINOLINES AS ANTIMALARIAL AGENTS” (priority 2008, published 2011).

tested on: P. falciparum K1; experiment: Plasmodium falciparum in vitro assay ([3H] hypoxanthine incorporation); assay type: cell-based; settings: Plasmodium falciparum; erythrocytic stages, strain K1 resistant to chloroquine and pyrimethamine, human red cells; read-out: IC50 (nM) on K1
Protocol: In vitro antimalarial activity: Plasmodium falciparum in vitro assay In vitro activity against erythrocytic stages of P. falciparum is determined using a [^3H] hypoxanthine incorporation assay. One strain resistant to chloroquine and pyrimethamine (P. falciparum K1) is used in the assays, and all test compounds are compared for activity with the standard drugs chloroquine (sigma C6628) and artemisinin (sigma-36, 159-3). Compounds are diluted in DMSO to 1 mM and added to parasite cultures incubated in RPMI 1640 medium without hypoxanthine, supplemented with HEPES (5.94 g/L), NaHCO3 (2.1 g/L), neomycin (100 U/mL), Albumax (5 g/L) and washed human red cells at 2.5% hematocrit (0.3% parasitaemia). Seven serial doubling dilutions of each drug are prepared in 96-well microtitre plates and incubated in a humidifying atmosphere at 37° C.; 4% CO2, 3% O2, 93% N2.
After 48 h, 50 μl of [^3H] hypoxanthine (0.5 μCi) is added to each well of a plate. The plates are incubated for a further 24 h under the same conditions. The plates are then harvested with a Betaplate cell harvester (Wallac) and washed with distilled water. The dried filters are inserted into a plastic foil with 10 mL of scintillation fluid, and counted in a Betaplate liquid scintillation counter. IC50 values are calculated from sigmoidal inhibition curves using Microsoft Excel.

| IC50 [nM] | Compound |
| --- | --- |
| 11 | O=C([C@H](Cc1ccccc1)N(Cc1ccc(-c2ccccn2)cc1)C(=O)C=Cc1ccc(C(F)(F)F)cc1)N1CCc2c(F)cccc2C1 [Example 74, (S)—N-[1-Benzyl-2-(5-fluoro-3,4-dihydro-1H-isoquinolin-2-yl)-2-oxo-ethyl]-N-(4-pyridin-2-yl-benzyl)-3-(4-trifluoromethyl-phenyl)-acrylamide] |
| 52 | O=C([C@H](Cc1ccccc1)N(Cc1ccc(-c2ccccn2)cc1)C(=O)C=Cc1ccc(C(F)(F)F)nc1)N1CCc2cc(F)ccc2C1 [Example 78, (S)—N-[1-Benzyl-2-(6-fluoro-3,4-dihydro-1H-isoquinolin-2-yl)-2-oxo-ethyl]-N-(4-pyridin-2-yl-benzyl)-3-(6-trifluoromethyl-pyridin-3-yl)-acrylamide] |
| 19 | COc1ccc(C=CC(=O)N(Cc2ccc(-c3ncccn3)cc2)[C@@H](Cc2ccccc2)C(=O)N2CCc3ccccc3C2)cn1 [Example 93, (S)—N-[1-Benzyl-2-(3,4-dihydro-1H-isoquinolin-2-yl)-2-oxo-ethyl]-3-(6-methoxy-pyridin-3-yl)-N-(4-pyrimidin-2-yl-benzyl)-acrylamide] |
| 29 | Cc1c(C=CC(=O)N(Cc2ccc(-c3ncccn3)cc2)[C@@H](Cc2ccccc2)C(=O)N2CCc3ccccc3C2)cnn1C [Example 99, (S)—N-[1-Benzyl-2-(3,4-dihydro-1H-isoquinolin-2-yl)-2-oxo-ethyl]-3-(1,5-dimethyl-1H-pyrazol-4-yl)-N-(4-pyrimidin-2-yl-benzyl)-acrylamide] |
| 84 | Cc1ncsc1C=CC(=O)N(Cc1ccc(-c2ncccn2)cc1)[C@@H](Cc1ccccc1)C(=O)N1CCc2ccccc2C1 [Example 104, (S)—N-[1-Benzyl-2-(3,4-dihydro-1H-isoquinolin-2-yl)-2-oxo-ethyl]-3-(4-methyl-thiazol-5-yl)-N-(4-pyrimidin-2-yl-benzyl)-acrylamide] |
| 35 | O=C([C@H](Cc1ccccc1)N(Cc1ccc(-c2cnccn2)cc1)C(=O)C=Cc1ccc(Cl)nc1)N1CCc2ccccc2C1 [Example 111, (S)—N-[1-Benzyl-2-(3,4-dihydro-1H-isoquinolin-2-yl)-2-oxo-ethyl]-3-(6-chloro-pyridin-3-yl)-N-(4-pyrazin-2-yl-benzyl)-acrylamide] |
| 63 | COc1ncc(C=CC(=O)N(Cc2ccc(-c3cnccn3)cc2)[C@@H](Cc2ccccc2)C(=O)N2CCc3ccccc3C2)cn1 [Example 114, (S)—N-[1-Benzyl-2-(3,4-dihydro-1H-isoquinolin-2-yl)-2-oxo-ethyl]-3-(2-methoxy-pyrimidin-5-yl)-N-(4-pyrazin-2-yl-benzyl)-acrylamide] |
| 67 | Cn1cc(C=CC(=O)N(Cc2ccc(-c3cnccn3)cc2)[C@@H](Cc2ccccc2)C(=O)N2CCc3ccccc3C2)cn1 [Example 116, (S)—N-[1-Benzyl-2-(3,4-dihydro-1H-isoquinolin-2-yl)-2-oxo-ethyl]-3-(1-methyl-1H-pyrazol-4-yl)-N-(4-pyrazin-2-yl-benzyl)-acrylamide] |
| 5 | Cc1nn(C)c(C)c1C=CC(=O)N(Cc1ccc(-c2cnccn2)cc1)[C@@H](Cc1ccccc1)C(=O)N1CCc2ccccc2C1 [Example 119, (S)—N-[1-Benzyl-2-(3,4-dihydro-1H-isoquinolin-2-yl)-2-oxo-ethyl]-N-(4-pyrazin-2-yl-benzyl)-3-(1,3,5-trimethyl-1H-pyrazol-4-yl)-acrylamide] |
| 13 | Cc1nc(C)c(C=CC(=O)N(Cc2ccc(-c3cccnn3)cc2)[C@@H](Cc2ccccc2)C(=O)N2CCc3ccccc3C2)s1 [Example 145, (S)—N-[1-Benzyl-2-(3,4-dihydro-1H-isoquinolin-2-yl)-2-oxo-ethyl]-3-(2,4-dimethyl-thiazol-5-yl)-N-(4-pyridazin-3-yl-benzyl)-acrylamide] |
| 2 | Cc1nn(C)c(C)c1C=CC(=O)N(Cc1ccc(-n2ccnn2)cc1)[C@@H](Cc1ccccc1)C(=O)N1CCc2ccccc2C1 [Example 157, (S)—N-[1-Benzyl-2-(3,4-dihydro-1H-isoquinolin-2-yl)-2-oxo-ethyl]-N-(4-[1,2,3]-triazol-1-yl-benzyl)-3-(1,3,5-trimethyl-1H-pyrazol-4-yl)-acrylamide] |
| 8 | O=C([C@H](Cc1ccccc1)N(Cc1ccc(-n2cncn2)cc1)C(=O)C=Cc1ccc(Cl)nc1)N1CCc2ccccc2C1 [Example 167, (S)—N-[1-Benzyl-2-(3,4-dihydro-1H-isoquinolin-2-yl)-2-oxo-ethyl]-3-(6-chloro-pyridin-3-yl)-N-(4-[1,2,4]-triazol-1-yl-benzyl)-acrylamide] |
| 25 | Cn1cc(C=CC(=O)N(Cc2ccc(-n3cncn3)cc2)[C@@H](Cc2ccccc2)C(=O)N2CCc3ccccc3C2)cn1 [Example 172, (S)—N-[1-Benzyl-2-(3,4-dihydro-1H-isoquinolin-2-yl)-2-oxo-ethyl]-3-(1-methyl-1H-pyrazol-4-yl)-N-(4-[1,2,4]-triazol-1-yl-benzyl)-acrylamide] |
| 28 | Cc1ncsc1C=CC(=O)N(Cc1ccc(-n2cncn2)cc1)[C@@H](Cc1ccccc1)C(=O)N1CCc2ccccc2C1 [Example 178, (S)—N-[1-Benzyl-2-(3,4-dihydro-1H-isoquinolin-2-yl)-2-oxo-ethyl]-3-(4-methyl-thiazol-5-yl)-N-(4-[1,2,4]-triazol-1-yl-benzyl)-acrylamide] |
| 4 | O=C([C@H](Cc1ccccc1)N(Cc1ccc(-c2nccs2)cc1)C(=O)C=Cc1ccc(C(F)(F)F)cc1)N1CCc2ccccc2C1 [Example 199, (S)—N-[1-Benzyl-2-(3,4-dihydro-1H-isoquinolin-2-yl)-2-oxo-ethyl]-N-(4-thiazol-2-yl-benzyl)-3-(4-trifluoromethyl-phenyl)-acrylamide] |
| 82 | CN1CCN(c2ccc(CN(C(=O)C=Cc3ccc(C(F)(F)F)cn3)[C@@H](Cc3ccccc3)C(=O)N3CCc4ccccc4C3)cc2)CC1 [Example 211, (S)—N-[1-Benzyl-2-(3,4-dihydro-1H-isoquinolin-2-yl)-2-oxo-ethyl]-N-[4-(4-methyl-piperazin-1-yl)-benzyl]-3-(5-trifluoromethyl-pyridin-2-yl)-acrylamide] |
| 31 | Cc1ccc(C=CC(=O)N(Cc2ccc(N3CCOCC3)cc2)[C@@H](Cc2ccccc2)C(=O)N2CCc3ccccc3C2)cn1 [Example 218, (S)—N-[1-Benzyl-2-(3,4-dihydro-1H-isoquinolin-2-yl)-2-oxo-ethyl]-3-(6-methyl-pyridin-3-yl)-N-(4-morpholin-4-yl-benzyl)-acrylamide] |
| 10 | COc1ccc(C=CC(=O)N(Cc2ccc(N3CCOCC3)cc2)[C@@H](Cc2ccccc2)C(=O)N2CCc3ccccc3C2)cn1 [Example 220, (S)—N-[1-Benzyl-2-(3,4-dihydro-1H-isoquinolin-2-yl)-2-oxo-ethyl]-3-(6-methoxy-pyridin-3-yl)-N-(4-morpholin-4-yl-benzyl)-acrylamide] |
| 18 | Cc1noc(C)c1C=CC(=O)N(Cc1ccc(N2CCOCC2)cc1)[C@@H](Cc1ccccc1)C(=O)N1CCc2ccccc2C1 [Example 224, (S)—N-[1-Benzyl-2-(3,4-dihydro-1H-isoquinolin-2-yl)-2-oxo-ethyl]-3-(3,5-dimethyl-isoxazol-4-yl)-N-(4-morpholin-4-yl-benzyl)-acrylamide] |
| 8.5 | O=C([C@H](Cc1ccccc1)N(Cc1ccc(-c2cncnc2)cc1)C(=O)C=Cc1ccc(Cl)nc1)N1CCc2ccccc2C1 [Example 228, (S)—N-[1-Benzyl-2-(3,4-dihydro-1H-isoquinolin-2-yl)-2-oxo-ethyl]-3-(6-chloro-pyridin-3-yl)-N-(4-pyrimidin-5-yl-benzyl)-acrylamide] |
| 26 | Cc1noc(C)c1C=CC(=O)N(Cc1ccc(-c2cncnc2)cc1)[C@@H](Cc1ccccc1)C(=O)N1CCc2ccccc2C1 [Example 235, (S)—N-[1-Benzyl-2-(3,4-dihydro-1H-isoquinolin-2-yl)-2-oxo-ethyl]-3-(3,5-dimethyl-isoxazol-4-yl)-N-(4-pyrimidin-5-yl-benzyl)-acrylamide] |
| 9 | COc1ccc(C=CC(=O)N(Cc2ccc(-c3ccncc3)cc2)[C@@H](Cc2ccccc2)C(=O)N2CCc3ccccc3C2)nn1 [Example 239, (S)—N-[1-Benzyl-2-(3,4-dihydro-1H-isoquinolin-2-yl)-2-oxo-ethyl]-3-(6-methoxy-pyridazin-3-yl)-N-(4-pyridin-4-yl-benzyl)-acrylamide] |
| 5 | Cc1noc(C)c1C=CC(=O)N(Cc1ccc(-c2ccncc2)cc1)[C@@H](Cc1ccccc1)C(=O)N1CCc2ccccc2C1 [Example 241, (S)—N-[1-Benzyl-2-(3,4-dihydro-1H-isoquinolin-2-yl)-2-oxo-ethyl]-3-(3,5-dimethyl-isoxazol-4-yl)-N-(4-pyridin-4-yl-benzyl)-acrylamide] |
| < 7.8 | Cn1ccc(C=CC(=O)N(Cc2ccc(-c3ccncc3)cc2)[C@@H](Cc2ccccc2)C(=O)N2CCc3ccccc3C2)n1 [Example 243, (S)—N-[1-Benzyl-2-(3,4-dihydro-1H-isoquinolin-2-yl)-2-oxo-ethyl]-3-(1-methyl-1H-pyrazol-3-yl)-N-(4-pyridin-4-yl-benzyl)-acrylamide] |
| 17 | Cc1ncc(C=CC(=O)N(Cc2ccc(-c3ccncc3)cc2)[C@@H](Cc2ccccc2)C(=O)N2CCc3ccccc3C2)n1C [Example 246, (S)—N-[1-Benzyl-2-(3,4-dihydro-1H-isoquinolin-2-yl)-2-oxo-ethyl]-3-(2,3-dimethyl-3H-imidazol-4-yl)-N-(4-pyridin-4-yl-benzyl)-acrylamide] |
